PMC8949241, “Design, Synthesis and Biological Evaluation of Neogliptin, a Novel 2-Azabicyclo[2.2.1]heptane-Based Inhibitor of Dipeptidyl Peptidase-4 (DPP-4)” (Pharmaceuticals, 2022)

Target: T1, recombinant DPP-4 enzyme D4943 (Homo sapiens, UniProt P27487)
T1 construct: purchased Sigma-Aldrich D4943
Experiment: DPP-4 enzyme inhibition, chromogenic substrate Gly-Pro-pNA, absorbance at 405 nm
Assay type: biochemical
Settings: 37 °C for 30 min, pH 7.6, dilution range 10^−4 to 10^−11 M
Experimental: The DDP-4 enzyme inhibitory activities of the synthesised compounds were assessed using protocols similar to those described in the literature. For IC50 values determination, inhibitory assays were carried out using recombinant DPP-4 enzyme D4943, chromogenic substrate Gly-Pro-pNA and buffer system (50 mM Tris-HCl, 50 mM NaCl, 0.01% Triton, pH = 7.6). After short incubation (37 °C for 30 min), the absorbance at 405 nm was measured. The procedure was initially optimised using reference compounds. Each inhibitor was analysed in the dilution range from 10^−4 to 10^−11 M. Certified samples of commercial drugs-inhibitors of DPP-4 (vilda-, sita-, alo- and linagliptin) with known IC50 were used as reference compounds. […] We analysed every compound in the dilution range […] (Table 3).
For the inhibitory assays, we used the substrate Gly-Pro-p-nitroanilide (H-Gly-Pro-pNA HCl, G0513) and recombinant dipeptidyl peptidase-4 enzyme (D4943) that were purchased from Sigma-Aldrich (St. Louis, MO, USA). […] The mixtures were incubated at 37 °C for 30 min, and the absorbance at 405 nm was measured using the microplate reader ChemWell (Awareness Technology Inc., Palm City, FL, USA). DPP-4 inhibitory activities for each test compound were calculated. […]

T1 sequence (P27487 whole entry): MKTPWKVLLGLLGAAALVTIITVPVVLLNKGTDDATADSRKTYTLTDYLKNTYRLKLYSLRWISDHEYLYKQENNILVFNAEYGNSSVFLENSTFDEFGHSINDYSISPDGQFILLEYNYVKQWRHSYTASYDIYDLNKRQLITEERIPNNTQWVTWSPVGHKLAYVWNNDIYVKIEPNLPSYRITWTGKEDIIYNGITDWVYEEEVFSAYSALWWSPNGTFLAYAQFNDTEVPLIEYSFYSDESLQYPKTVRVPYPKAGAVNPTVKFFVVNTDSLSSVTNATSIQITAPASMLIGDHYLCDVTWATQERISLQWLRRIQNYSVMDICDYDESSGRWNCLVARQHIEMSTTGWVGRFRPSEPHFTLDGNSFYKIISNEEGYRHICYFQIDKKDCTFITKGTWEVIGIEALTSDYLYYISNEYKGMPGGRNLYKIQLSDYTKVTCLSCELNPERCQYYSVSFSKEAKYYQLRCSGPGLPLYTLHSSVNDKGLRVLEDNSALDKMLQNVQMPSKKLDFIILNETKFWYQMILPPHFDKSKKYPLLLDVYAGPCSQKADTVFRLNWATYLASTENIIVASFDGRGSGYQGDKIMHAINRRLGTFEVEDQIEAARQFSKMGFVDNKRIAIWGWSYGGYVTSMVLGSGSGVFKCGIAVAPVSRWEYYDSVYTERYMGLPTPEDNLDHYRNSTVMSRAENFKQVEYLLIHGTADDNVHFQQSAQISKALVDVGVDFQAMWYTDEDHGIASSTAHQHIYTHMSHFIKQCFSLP

Substance: ( 3R,S)-2-[(3R)-3-Amino-4-(2,4,5-trifluorophenyl)butanoyl]-endo-2-azabicyclo[2.2.1]hepnane-3-carbonitrile p-toluenesulpfonate [12c (S-endo): 12d (R-endo), 1:1 mixture]
- IC50: > 1000 nM
